According to the NIST ThermoML archive (doi:10.1021/je300938w):

Experiments:
[1] = wn = mass fraction of the nth substance listed; settings: 101 kPa, Liquid; for viscosity: Concentric cylinders viscometry; for mass density: Vibrating tube method
[2] = refractive index (Na D-line) (dimensionless); wn = mass fraction of the nth substance listed; settings: 101 kPa, Liquid, Standard Abbe refractometry

CC(O)CNCC(C)O (stereo not given) [N-(2-hydroxypropyl)-2-hydroxy-1-propanamine] + O
Settings | mass density, [1] [kg/m3] | refractive index, [2] | viscosity, [1] [mPa·s]
298.15 K, w1 = 0.05 | 1000.6 | 1.34052 | 1.117
298.15 K, w1 = 0.1 | 1003.53 | 1.34766 | 1.394
298.15 K, w1 = 0.15 | 1006.99 | 1.35486 | 1.814
298.15 K, w1 = 0.2 | 1010.4 | 1.3621 | 2.288
298.15 K, w1 = 0.25 | 1014.1 | 1.36925 | 3.026
303.15 K, w1 = 0.05 | 999.133 | 1.33988 | 0.9968
303.15 K, w1 = 0.1 | 1001.97 | 1.34693 | 1.228
303.15 K, w1 = 0.15 | 1005.27 | 1.35421 | 1.569
303.15 K, w1 = 0.2 | 1008.5 | 1.3613 | 1.952
303.15 K, w1 = 0.25 | 1011.98 | 1.36822 | 2.539
308.15 K, w1 = 0.05 | 997.454 | 1.33919 | 0.8984
308.15 K, w1 = 0.1 | 1000.19 | 1.34623 | 1.093
308.15 K, w1 = 0.15 | 1003.35 | 1.35332 | 1.38
308.15 K, w1 = 0.2 | 1006.41 | 1.36036 | 1.695
308.15 K, w1 = 0.25 | 1009.69 | 1.36736 | 2.167
313.15 K, w1 = 0.05 | 995.576 | 1.33844 | 0.8189
313.15 K, w1 = 0.1 | 998.214 | 1.34533 | 0.9814
313.15 K, w1 = 0.15 | 1001.24 | 1.35237 | 1.224
313.15 K, w1 = 0.2 | 1004.14 | 1.35947 | 1.485
313.15 K, w1 = 0.25 | 1007.23 | 1.36641 | 1.871
318.15 K, w1 = 0.05 | 993.508 | 1.33755 | 0.7442
318.15 K, w1 = 0.1 | 996.055 | 1.3445 | 0.8856
318.15 K, w1 = 0.15 | 998.951 | 1.35149 | 1.095
318.15 K, w1 = 0.2 | 1001.71 | 1.35838 | 1.313
318.15 K, w1 = 0.25 | 1004.62 | 1.36537 | 1.633
323.15 K, w1 = 0.05 | 991.263 | 1.33675 | 0.6884
323.15 K, w1 = 0.1 | 993.722 | 1.34355 | 0.8047
323.15 K, w1 = 0.15 | 996.497 | 1.35044 | 0.9924
323.15 K, w1 = 0.2 | 999.106 | 1.35739 | 1.171
323.15 K, w1 = 0.25 | 1001.86 | 1.36423 | 1.438
328.15 K, w1 = 0.05 | 988.852 | 1.33566 | 0.6407
328.15 K, w1 = 0.1 | 991.224 | 1.34256 | 0.7357
328.15 K, w1 = 0.15 | 993.882 | 1.3494 | 0.9053
328.15 K, w1 = 0.2 | 996.358 | 1.35615 | 1.052
328.15 K, w1 = 0.25 | 998.953 | 1.36294 | 1.278
333.15 K, w1 = 0.05 | 986.277 | 1.33467 | 0.5833
333.15 K, w1 = 0.1 | 988.56 | 1.34147 | 0.6793
333.15 K, w1 = 0.15 | 991.114 | 1.34831 | 0.8324
333.15 K, w1 = 0.2 | 993.463 | 1.35501 | 0.9512
333.15 K, w1 = 0.25 | 995.91 | 1.36175 | 1.145
338.15 K, w1 = 0.05 | 983.349 | 1.33363 | 0.5507
338.15 K, w1 = 0.1 | 985.762 | 1.34037 | 0.6341
338.15 K, w1 = 0.15 | 988.199 | 1.34702 | 0.7693
338.15 K, w1 = 0.2 | 990.404 | 1.35377 | 0.8643
338.15 K, w1 = 0.25 | 992.735 | 1.36051 | 1.032
343.15 K, w1 = 0.05 | 980.387 | 1.33224 | 0.5267
343.15 K, w1 = 0.1 | 982.81 | 1.33899 | 0.6006
343.15 K, w1 = 0.15 | 985.138 | 1.34583 | 0.725
343.15 K, w1 = 0.2 | 987.241 | 1.35253 | 0.8146
343.15 K, w1 = 0.25 | 989.434 | 1.35922 | 0.9579
